Experiment [1] has as its target Tie2 (Homo sapiens, UniProt Q02763). Nature of the experiment: Tie-2-Kinase HTRF-Assay without kinase preactivation. Type of experiment: biochemical. Set-up: fusion protein of GST and the intracellular domains of Tie-2; GST; made in house; host or cells: insect cells (Hi-5). The settings on record: GST-Tie-2 intracellular domains, 10 μM ATP, read-out: Tie2 activity (assay 2). The text has this:
Tie2-inhibitory activity of compounds of the present invention was quantified employing two Tie2 HTRF assay as described in the following paragraphs.
A recombinant fusion protein of GST and the intracellular domains of Tie-2, expressed in insect cells (Hi-5) and purified by Glutathion-Sepharose affinity chromatography was used as kinase. Alternatively, commercially available GST-Tie2-fusion protein (Upstate Biotechnology, Dundee, Scotland) can be used As substrate for the kinase reaction the biotinylated peptide biotin-Ahx-EPKDDAYPLYSDFG (C-terminus in amid form) was used which can be purchased e.g. from the company Biosynthan GmbH (Berlin-Buch, Germany). Detection of phosphorylated product is achieved specifically by a trimeric detection complex consisting of the phosphorylated substrate, streptavidin-XLent (SA-XLent) which binds to biotin, and Europium Cryptate-labeled anti-phosphotyrosine antibody PT66 which binds to phosphorylated tyrosine.
Tie-2 (3.5 ng/measurement point) was incubated for 60 min at 22° C. in the presence of 10 μM adenosine-tri-phosphate (ATP) and 1 μM substrate peptide (biotin-Ahx-EPKDDAYPLYSDFG-NH2) with different concentrations of test compounds (0 μM and concentrations in the range 0.001-20 μM) in 5 μl assay buffer [50 mM Hepes/NaOH pH 7, 10 mM MgCl2, 0.5 mM MnCl2, 1.0 mM dithiothreitol, 0.01% NP40, protease inhibitor mixture (“Complete w/o EDTA” from Roche, 1 tablet per 2.5 ml), 1% (v/v) dimethylsulfoxide]. The reaction was stopped by the addition of 5 μl of an aqueous buffer (25 mM Hepes/NaOH pH 7.5, 0.28% (w/v) bovine serum albumin) containing EDTA (90 mM) and the HTRF (Homogeneous Time Resolved Fluorescence) detection reagents streptavidine-XLent (0.2 μM, from Cis Biointernational, Marcoule, France) and PT66-Eu-Chelate (0.3 ng/μl; a europium-chelate labelled anti-phospho-tyrosine antibody from Perkin Elmer).
(§1) The resulting mixture was incubated 1 h at 22° C. to allow the binding of the biotinylated phosphorylated peptide to the streptavidine-XLent and the PT66-Eu-Chelate. Subsequently the amount of phosphorylated substrate peptide was evaluated by measurement of the resonance energy transfer from the PT66-Eu-Chelate to the streptavidine-XLent. Therefore, the fluorescence emissions at 620 nm and 665 nm after excitation at 350 nm was measured in a HTRF reader, e.g. a Rubystar (BMG Labtechnologies, Offenburg, Germany) or a Viewlux (Perkin-Elmer). The ratio of the emissions at 665 nm and at […] was taken as the measure for the amount of phosphorylated substrate peptide. The data were normalised (enzyme reaction without inhibitor=0% inhibition, all other assay components but no enzyme=100% inhibition) and IC50 values were calculated by a 4 parameter fit using an inhouse software.

Experiment [2] concerns the target T1, human KDR (Homo sapiens, UniProt P35968).
T1 construct: GST-tagged recombinant kinase domain of the human KDR; GST; made in house; host or cells: SF-9 insect cells
Kind of experiment: VEGFR2 Kinase (KDR) HTRF Assay. It counts as biochemical. As to conditions: GST-tagged kinase domain of human KDR, 10 μM ATP; read-out: KDR activity (assay 4).
From the text: Assay 4: VEGFR2 Kinase (KDR) HTRF Assay
KDR inhibitory activity of compounds of the present invention was quantified employing the KDR HTRF assay as described in the following paragraphs.
GST-tagged recombinant kinase domain of the human KDR expressed in SF-9 cells was used as kinase. As substrate for the kinase reaction the biotinylated peptide biotin-Ahx-DFGLARDMYDKEYYSVG (C-terminus in acid form) was used which can be purchased e.g. form the company Biosynthan GmbH (Berlin-Buch, Germany). KDR was incubated for 45 min at 22° C. in the presence of different concentrations of test compounds in 5 μl assay buffer [50 mM Hepes/NaOH pH 7.0, 25 mM MgCl2, 5 mM MnCl2, 1.0 mM dithiothreitol, 0.1 mM sodium ortho-vanadate, 10 μM adenosine-tri-phosphate (ATP), 0.5 μM substrate, 0.001% (v/v) Nonidet-P40 (Sigma), 1% (v/v) dimethylsulfoxide]. The concentration of KDR was adjusted depending of the activity of the enzyme lot and was chosen appropriate to have the assay in the linear range. The reaction was stopped by the addition of 5 μL of a solution of HTRF detection reagents (0.1 μM streptavidine-XLent and 2 nM PT66-Eu-Chelate, an europium-chelate Labelled anti-phospho-tyrosine antibody from Perkin Elmer) in an aqueous EDTA-solution (125 mM EDTA, 0.2% (w/v) bovine serum albumin in 50 mM HEPES/NaOH pH 7.0).
as §1, with “substrate” for “substrate peptide”, “ViewLux” for “Viewlux”, “substrate.” for “substrate peptide.”

Each structure is given as a SMILES string. Some results are limits rather than exact numbers.

16 compounds from US8642611B2, “Alkynylpyrimidines and salts thereof, pharmaceutical compositions comprising same, methods of preparing same and uses of same” (Bayer Intellectual Property GmbH, priority 2007, dated 2014) can be followed below.

Tie2, sequence (Q02763 770-1124 limits assumed): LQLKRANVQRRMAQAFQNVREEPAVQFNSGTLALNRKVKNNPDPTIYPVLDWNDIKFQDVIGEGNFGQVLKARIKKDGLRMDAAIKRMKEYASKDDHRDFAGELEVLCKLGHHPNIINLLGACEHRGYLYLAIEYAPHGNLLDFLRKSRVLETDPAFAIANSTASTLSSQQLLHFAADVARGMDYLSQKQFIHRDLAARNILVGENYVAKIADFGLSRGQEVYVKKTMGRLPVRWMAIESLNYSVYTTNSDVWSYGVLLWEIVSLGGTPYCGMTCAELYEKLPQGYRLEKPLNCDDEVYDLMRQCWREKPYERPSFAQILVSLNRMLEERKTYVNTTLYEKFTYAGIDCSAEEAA
T1 sequence (P35968 834-1162 limits assumed): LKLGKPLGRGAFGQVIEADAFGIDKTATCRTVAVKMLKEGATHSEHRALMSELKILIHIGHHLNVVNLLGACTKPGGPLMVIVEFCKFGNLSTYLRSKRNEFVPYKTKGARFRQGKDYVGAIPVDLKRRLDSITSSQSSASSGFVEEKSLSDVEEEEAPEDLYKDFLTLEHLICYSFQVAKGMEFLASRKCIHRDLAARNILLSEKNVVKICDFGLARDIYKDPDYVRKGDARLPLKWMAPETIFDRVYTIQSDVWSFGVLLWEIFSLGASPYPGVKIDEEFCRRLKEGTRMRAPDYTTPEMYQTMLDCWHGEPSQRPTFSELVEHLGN

`COc1ccc(C#Cc2cnc(Nc3ccc(S(C)(=N)=O)cc3)nc2N[C@H](C)CO)cc1` (mixture of isomers) [Example 1.1, (RS)—S-(4-[4-((R)-2-Hydroxy-1-methyl-ethylamino)-5-(4-methoxy-phenylethynyl)-pyrimidin-2-ylamino]-phenyl)-S-methylsulfoximide]: the IC50 in experiment [1] and in experiment [2] was < 500 nM each time.
`C[C@H](CO)Nc1nc(Nc2ccc(S(C)(=N)=O)cc2)ncc1C#Cc1ccccc1` (mixture of isomers) [Example 1.2, (RS)-S-(4-[4-((R)-2-Hydroxy-1-methyl-ethylamino)-5-(phenylethynyl)-pyrimidin-2-ylamino]-phenyl)-S-methylsulfoximide]: the IC50 in experiment [1] and in experiment [2] was < 500 nM throughout.
In the case of `CCc1ccc(C#Cc2cnc(Nc3ccc(S(C)(=N)=O)cc3)nc2N[C@H](C)CO)cc1` (mixture of isomers) [Example 1.8, (RS)-S-(4-[5-(4-Ethyl-phenylethynyl)-4-((R)-2-hydroxy-1-methyl-ethylamino)-pyrimidin-2-ylamino]-phenyl)-S-methylsulfoximide], the IC50 in experiment [1] and in experiment [2] was < 500 nM throughout.
`C[C@H](CO)Nc1nc(Nc2ccc(S(C)(=N)=O)cc2)ncc1C#Cc1ccc(F)cc1` (mixture of isomers) [Example 1.9, (RS)-S-(4-[5-(4-Fluoro-phenyl-ethynyl)-4-((R)-2-hydroxy-1-methyl-ethylamino)-pyrimidin-2-ylamino]-phenyl)-S-methylsulfoximide]: the IC50 in experiment [1] and in experiment [2] was < 500 nM throughout.
`Cc1cc(C#Cc2cnc(Nc3ccc(S(C)(=N)=O)cc3)nc2N[C@H](C)CO)ccc1F` (mixture of isomers) [Example 1.13, (RS)-S-(4-[5-(4-Fluoro-3-methyl-phenyl-ethynyl)-4-((R)-2-hydroxy-1-methyl-ethylamino)-pyrimidin-2-ylamino]-phenyl)-S-methylsulfoximide]: the IC50 in experiment [1] and in experiment [2] was < 500 nM each time.
Turning to `CC(C)NC(=O)N=S(C)(=O)c1cccc(Nc2ncc(C#Cc3cccc(O)c3)c(N[C@H](C)CO)n2)c1` (mixture of isomers) [Example 1.15, (RS)-S-(3-[4-((R)-2-Hydroxy-1-methyl-ethylamino)-5-(3-hydroxy-phenylethynyl)-pyrimidin-2-ylamino]-phenyl)-N-(isopropylcarbamoyl)-S-methylsulfoximide], the IC50 in experiment [1] and in experiment [2] was < 500 nM each time.
As to `COc1ccc(C#Cc2cnc(Nc3cccc(S(C)(=N)=O)c3)nc2N[C@H](C)CO)cc1` (mixture of isomers) [Example 1.17, (RS)-S-(3-[4-((R)-2-Hydroxy-1-methyl-ethylamino)-5-(4-methoxy-phenylethynyl)-pyrimidin-2-ylamino]-phenyl)-S-methylsulfoximide], the IC50 in experiment [1] and in experiment [2] was < 500 nM in each case.
For `C[C@H](CO)Nc1nc(Nc2cccc(S(C)(=N)=O)c2)ncc1C#Cc1cccc(O)c1` (mixture of isomers) [Example 1.18, (RS)-S-(3-[4-((R)-2-Hydroxy-1-methyl-ethylamino)-5-(3-hydroxy-phenylethynyl)-pyrimidin-2-ylamino]-phenyl)-S-methylsulfoximide], the IC50 in experiment [1] and in experiment [2] was < 500 nM in each case.
Take `Cc1ccccc1C#Cc1cnc(Nc2cccc(S(C)(=N)=O)c2)nc1N[C@H](C)CO` (mixture of isomers) [Example 1.19, (RS)-S-(3-[4-((R)-2-Hydroxy-1-methyl-ethylamino)-5-(2-methyl-phenylethynyl)-pyrimidin-2-ylamino]-phenyl)-S-methylsulfoximide]: the IC50 in experiment [1] and in experiment [2] was < 500 nM throughout.
Regarding `Cc1cc(C#Cc2cnc(Nc3cccc(S(C)(=N)=O)c3)nc2N[C@H](C)CO)ccc1F` (mixture of isomers) [Example 1.20, (RS)-S-(3-[5-(4-Fluoro-3-methyl-phenyl-ethynyl)-4-((R)-2-hydroxy-1-methyl-ethylamino)-pyrimidin-2-ylamino]-phenyl)-S-methylsulfoximide], the IC50 in experiment [1] and in experiment [2] was < 500 nM throughout.
`Cc1ccccc1C#Cc1cnc(Nc2ccc(S(C)(=N)=O)cc2)nc1N[C@H](C)CO` (mixture of isomers) [Example 1.3]: the IC50 in experiment [1] and in experiment [2] was < 500 nM each time.
Consider `Cc1ccc(C#Cc2cnc(Nc3ccc(S(C)(=N)=O)cc3)nc2N[C@H](C)CO)cc1` (mixture of isomers) [Example 1.5], for which the IC50 in experiment [1] and in experiment [2] was < 500 nM throughout.
Regarding `CCNc1nc(Nc2ccc(S(C)(=N)=O)cc2)ncc1C#Cc1ccc(F)c(C)c1` (racemic) [Example 1.24, (RS)-S-(4-[4-ethylamino-5-(4-fluoro-3-methyl-phenyl-ethynyl)-pyrimidin-2-ylamino]-phenyl)-S-methylsulfoximide], the IC50 in experiment [1] and in experiment [2] was < 500 nM each time.
`CCNc1nc(Nc2ccc(S(C)(=N)=O)cc2)ncc1C#Cc1ccc(OC)cc1` (racemic) [Example 1.26, (RS)-S-(4-[4-ethylamino-5-(4-methoxy-phenyl-ethynyl)-pyrimidin-2-ylamino]-phenyl)-S-methylsulfoximide]: the IC50 in experiment [1] and in experiment [2] was < 500 nM in each case.
Regarding `CCOC(=O)N=S(C)(=O)c1ccc(Nc2ncc(C#Cc3cccc(O)c3)c(N[C@H](C)CO)n2)cc1` (mixture of isomers) [Example 2.7], the IC50 in experiment [1] and in experiment [2] was < 500 nM in each case.
As to `CS(=N)(=O)c1cccc(Nc2ncc(C#Cc3cccc(O)c3)cn2)c1` (racemic) [Example 4.2, (RS)—S-(3-[5-(3-hydroxy-phenylethynyl)-pyrimidin-2-ylamino]-phenyl)-S-methylsulfoximide], the IC50 in experiment [1] and in experiment [2] was < 500 nM in each case.
